Converted amounts (≈) assume the structure as drawn.
Assays:
Type in all cases: cell-based
P388 leukemia = test: IC50 against P388 leukemia cells; settings: Mus musculus
HT29 human colon = test: IC50 against HT29 human colon cells; settings: HT-29
MEL28 melanoma = test: IC50 against MEL28 melanoma cells; settings: Homo sapiens, SK-MEL-28
A459 human lung = test: IC50 against A459 human lung cells

- IC50 (P388 leukemia): 0.01 µg/mL (≈ 0.0334 µM)
- IC50 (HT29 human colon): 0.01 µg/mL (≈ 0.0334 µM)
- IC50 (MEL28 melanoma): 0.01 µg/mL (≈ 0.0334 µM)
- IC50 (A459 human lung): 0.01 µg/mL (≈ 0.0334 µM)
Structure (SMILES): CCCCCCCCCCCCCC[C@@H]1OC[C@H](N)[C@@H]1O [IK-8-73-4]

— US6864283B2, “Oxy-and amino-substituted tetrahydrofuryl derivatives with antitumour activity” (Pharma Mar, S.A., priority 2000, dated 2005)
